{"source": "patent US7262165B2", "about": "“Aqueous preparation containing oligopeptides and etherified cyclodextrin” (Merck Patent GmbH, priority 2002, dated 2007)", "assay": "Saturation solubilities of the oligopeptide (cilengitide) in the solvent indicated, with pH", "type": "physicochemical", "conditions": "in physiological saline solution", "description": "In order to determine the saturation solubilities, the oligopeptide was stirred for 1 hour at room temperature in the solvent indicated in each case.\nAnalogously to Example 1, the effect of addition of β-cyclodextrin ethers (MS 0.63) on the saturation solubilities of the oligopeptides was determined using the example of cilengitide."}
{"smiles": "CC(C)[C@H]1C(=O)N[C@@H](CCCN=C(N)N)C(=O)NCC(=O)N[C@@H](CC(=O)O)C(=O)N[C@H](Cc2ccccc2)C(=O)N1C", "note": "[Cilengitide, cyclo-(Arg-Gly-Asp-D-Phe-NMe-Val)]", "values": [{"measurement": "solubility at 1 h", "result": "~19", "unit": "mg/mL"}]}
